Data set [1] relates to RT-112. Put plainly: Antiproliferative activity against human RT112 cells expressing CYP1A1 assessed as growth inhibition after 96 hrs by MTT assay. It counts as functional, cell-based. The conditions noted are these: RT-112, 96 h. In general terms: Tetrazolium assays rely on reduction of a dye to a coloured formazan, in cell work by metabolically active cells.
In data set [2] the test system is CYP1A1. As to the kind of experiment: Potentiation factor, ratio of IC50 for wild type HEK293 cells to IC50 of HEK293 cells expressing CYP1A1. It counts as ADME, cell-based. The conditions noted are these: human, wild type HEK293 cells and HEK293 cells expressing CYP1A1; read-out: Ratio IC50.
The test system of data set [3] is CHO. As to the kind of experiment: Antiproliferative activity against CHO cells expressing CYP1A1 assessed as growth inhibition after 96 hrs by MTT assay. It counts as functional, cell-based. The conditions noted are these: Cricetulus griseus.
Data set [4] deals with HEK293. Put plainly: Antiproliferative activity against human HEK293 cells expressing CYP2W1 assessed as growth inhibition after 96 hrs by MTT assay. It counts as functional, cell-based. Conditions: HEK293, 96 h.
Data set [5] concerns CHO. As to the kind of experiment: Antiproliferative activity against CHO cells assessed as growth inhibition after 96 hrs by MTT assay. It counts as cell-based. Conditions: Cricetulus griseus.
The test system of data set [6] is CYP1A1. Put plainly: Potentiation factor, ratio of IC50 for wild type CHO cells to IC50 of CHO cells expressing CYP1A1. The class given is ADME, cell-based, Cricetulus griseus. Conditions: chinese hamster, wild type CHO cells and CHO cells expressing CYP1A1; read-out: Ratio IC50.
The subject of data set [7] is HEK293. Put plainly: Induction of cell death in mock-transfected human HEK293 cells t 0.5 to 5 uM after 48 hrs by trypan blue assay. The class given is cell-based. Conditions: hek293, 48 h.
Data set [8] relates to RT-112. As to the kind of experiment: Induction of cell death in human RT112 cells after 48 hrs at 0.5 to 5 uM by trypan blue assay. It counts as functional, cell-based.
For data set [9], the system named is HEK293. As to the kind of experiment: Induction of cell death in human HEK293 cells expressing CYP2W1 t 0.5 to 5 uM after 48 hrs by trypan blue assay. It counts as functional, cell-based.
Data set [10] deals with HEK293. Put plainly: Induction of DNA damage in mock-transfected human HEK293 assessed as phosphorylation of gammaH2A.X at 0.5 to 5 uM after 48 hrs by Western blotting analysis. The class given is cell-based. The conditions noted are these: hek293, 48 h. For orientation: A western blot detects proteins with antibodies after separation by electrophoresis.
Data set [11] relates to RT-112. As to the kind of experiment: Induction of DNA damage in human RT112 cells assessed as phosphorylation of gammaH2A.X at 0.5 to 5 uM after 48 hrs by Western blotting analysis. The class given is functional, cell-based.
Data set [12] has as its system HEK293. As to the kind of experiment: Induction of DNA damage in human HEK293 cells expressing CYP2W1 assessed as phosphorylation of gammaH2A.X at 0.5 to 5 uM after 48 hrs by Western blotting analysis. It counts as functional, cell-based.
Data set [13] has as its system HEK293. As to the kind of experiment: Antiproliferative activity against human HEK293 cells assessed as growth inhibition after 96 hrs by MTT assay. Conditions: HEK293, 96 h. It counts as cell-based.
Data set [14] in a line: Antiproliferative activity against human EJ138 cells treated with extract obtained from 1 hr incubation of compound with CYP3A4 bactosome measured after 96 hrs by MTT assay. The class given is functional, cell-based.
A short description of data set [15]: Antiproliferative activity against human EJ138 cells treated with extract obtained from 1 hr incubation of compound with CYP2D6 bactosome measured after 96 hrs by MTT assay. The class given is functional, cell-based.
Data set [16] can be described thus: Potentiation factor, ratio of IC50 for human EJ138 cells treated with extract obtained from 1 hr incubation of compound with control bactosome to IC50 of human EJ138 treated with extract obtained from 1 hr incubation of compound with CYP1A1 bactosome. The class given is functional.
A short description of data set [17]: Antiproliferative activity against human EJ138 cells after 96 hrs by MTT assay. Conditions: EJ138, 96 h. The class given is functional, cell-based.
Data set [18] is described as follows: Potentiation factor, ratio of IC50 for human EJ138 cells treated with extract obtained from 1 hr incubation of compound with control bactosome to IC50 of human EJ138 treated with extract obtained from 1 hr incubation of compound with CYP2D6 bactosome. It counts as functional.
Data set [19] is described as follows: Antiproliferative activity against human EJ138 cells treated with extract obtained from 1 hr incubation of compound with control bactosome measured after 96 hrs by MTT assay. It counts as functional, cell-based.
Data set [20] can be described thus: Potentiation factor, ratio of IC50 for human EJ138 cells treated with extract obtained from 1 hr incubation of compound with control bactosome to IC50 of human EJ138 treated with extract obtained from 1 hr incubation of compound with CYP1B1 bactosome. The class given is functional.
The nature of data set [21]: Potentiation factor, ratio of IC50 for human EJ138 cells treated with extract obtained from 1 hr incubation of compound with control bactosome to IC50 of human EJ138 treated with extract obtained from 1 hr incubation of compound with CYP3A4 bactosome. It counts as functional.
Data set [22] in a line: Antiproliferative activity against human EJ138 cells treated with extract obtained from 1 hr incubation of compound with CYP1A1 bactosome measured after 96 hrs by MTT assay. The class given is functional, cell-based.
A short description of data set [23]: Potentiation factor, ratio of IC50 for human EJ138 cells treated with extract obtained from 1 hr incubation of compound with control bactosome to IC50 of human EJ138 treated with extract obtained from 1 hr incubation of compound with CYP1A2 bactosome. It counts as functional.
The next data set has as its system Liver. Put plainly: Drug metabolism in mouse liver homogenate at 100 uM up tp 120 mins by LC/MS analysis. It counts as ADME, tissue-based. The conditions noted are these: tissue homogenate, 2 h.
Data set [24] is described as follows: Antiproliferative activity against human EJ138 cells treated with extract obtained from 1 hr incubation of compound with CYP1B1 bactosome measured after 96 hrs by MTT assay. It counts as functional, cell-based.
Data set [25] in a line: Drug metabolism in mouse liver microsomes at 100 uM after 2 hrs by HPLC/mass spectrometry analysis in presence of NADPH. The class given is ADME, Microsome. In general terms: Liver microsomes are a subcellular fraction often used to study metabolism.
The nature of data set [26]: Antiproliferative activity against human EJ138 cells treated with extract obtained from 1 hr incubation of compound with CYP1A2 bactosome measured after 96 hrs by MTT assay. It counts as functional, cell-based.

These results are taken from ChEMBL document CHEMBL2406908, “Re-engineering of the duocarmycin structural architecture enables bioprecursor development targeting CYP1A1 and CYP2W1 for biological activity” (J Med Chem, 2013).

Activity calls are given as the source filed them. The rule behind the calls is not given here. A value given as a limit tells only on which side of the number the result lay.

Consider `COc1ccc2[nH]c(C(=O)N3CC(CCl)c4c3cc(O)c3ccccc43)cc2c1` (stereo not drawn), for which the IC50 was 151 µM in the data set with RT-112 [1], 102 µM with CHO [3], 641 µM in the data set on HEK293 [4] and 194 µM in the data set with CHO [5]. Further, the values for the selectivity ratio in the data set with CYP1A1 [2] and in the data set with CYP1A1 [6] were 0.2 and 1.9, respectively.

As to `COc1ccc2[nH]c(C(=O)N3CC(CCl)c4c3ccc3[nH]ccc43)cc2c1` (stereo not drawn), the Activity entry in the data set with HEK293 [7] and in the data set with HEK293 [10] was “Non-toxic” each time. The outcome in the data set on RT-112 [8], in the data set on HEK293 [9], in the data set with RT-112 [11] and in the data set on HEK293 [12] was Active. Also, the IC50 in the data set with RT-112 [1] was 0.2 µM; with CHO [3], less than 0.001 µM; in the data set with HEK293 [4] it was 0.6 µM; with CHO [5], 3.2 µM. Also, the selectivity ratio in the data set on CYP1A1 [2] is 14.7; in the data set on CYP1A1 [6], greater than 3200.

`O=C(c1cc2cc(F)ccc2[nH]1)N1CC(CCl)c2c1ccc1[nH]ccc21` (stereo not drawn): the half-inhibitory concentration (IC50) with RT-112 [1] was 11.1 µM; in the data set on CHO [3], 0.09 µM; with HEK293 [4], 0.5 µM; in the data set with CHO [5], 22.6 µM. Further, the selectivity ratio was found to be 21 in the data set on CYP1A1 [2] and 251 with CYP1A1 [6].

In the case of `CS(=O)(=O)c1cc(F)cc2cc(C(=O)N3CC(CCl)c4c3ccc3[nH]ccc43)[nH]c12` (stereo not drawn), the IC50 with RT-112 [1] is 7.7 µM; with CHO [3] it was 4.1 µM; in the data set on HEK293 [4], 12.2 µM; with CHO [5], 3.2 µM. For the same molecule, the values for the selectivity ratio in the data set on CYP1A1 [2] and in the data set on CYP1A1 [6] were 0.9 and 0.8, respectively.

`COc1ccc2[nH]c(C(=O)N3CC(CCl)c4c3cc(O)c3[nH]ccc43)cc2c1` (stereo not drawn): the IC50 in the data set on RT-112 [1] came to 0.000125 µM; in the data set on CHO [3], 0.000624 µM; with HEK293 [4], 0.000376 µM; with HEK293 [13] it was 0.000453 µM; with CHO [5], 0.000167 µM. Further, the selectivity ratio with CYP1A1 [2] was 1.2; with CYP1A1 [6], 0.2.

Turning to `O=C(c1cc2cc(F)c(F)cc2[nH]1)N1CC(CCl)c2c1ccc1[nH]ccc21` (stereo not drawn), the IC50 was 1.8 µM in the data set on RT-112 [1], 0.23 µM with CHO [3], 3.7 µM in the data set on HEK293 [4] and 18.4 µM with CHO [5]. For the same molecule, the selectivity ratio is 2.6 with CYP1A1 [2] and 80 in the data set on CYP1A1 [6].

For `COc1cc2cc(C(=O)N3CC(CCl)c4c3ccc3[nH]ccc43)[nH]c2cc1OC` (stereo not drawn), the Activity result with HEK293 [7] and in the data set on HEK293 [10] was “Non-toxic” throughout. The result in the data set on RT-112 [8], in the data set on HEK293 [9], in the data set with RT-112 [11] and in the data set on HEK293 [12] was Active. The IC50 was 0.3 µM with RT-112 [1], less than 0.001 µM with CHO [3], 6.1 µM with HEK293 [4] and 3 µM in the data set with CHO [5]. The selectivity ratio with CYP1A1 [2] is 1.3; with CYP1A1 [6], greater than 3000.

For the molecule `COc1ccc2[nH]c(C(=O)N3CC(CCl)c4c3ccc3ccccc43)cc2c1` (stereo not drawn), the IC50 in data set [14] is 1.04 µM; in data set [15], 2.53 µM; with RT-112 [1] it was greater than 50 µM; in [17], 2.88 µM; in [19], 1.99 µM; with CHO [3], 0.96 µM. Further, the IC50 was 0.02 µM in [22]; greater than 50 µM in the data set on HEK293 [4]; greater than 50 µM in the data set on CHO [5]; 1.53 µM in [24]; 2.23 µM in data set [26]. Besides, the “Ratio IC50” value was 100 in data set [16]; 0.79 in data set [18]; 1.3 in data set [20]; 1.91 in data set [21]; 0.9 in [23]. For the same molecule, the Drug metabolism entry (in the data set on Liver; in data set [25]) was “Active” in each case.

For the molecule `COc1cc2cc(C(=O)N3CC(CCl)c4c3ccc3[nH]ccc43)[nH]c2c(OC)c1OC` (stereo not drawn), the Activity result with HEK293 [7] and in the data set with HEK293 [10] was “Non-toxic” in each case. Also, the outcome with RT-112 [8], in the data set on HEK293 [9], in the data set with RT-112 [11] and with HEK293 [12] was Active. Moreover, the 50% inhibitory concentration (IC50) in the data set on RT-112 [1] stood at 7 µM; in the data set with CHO [3], 3.1 µM; with HEK293 [4] it was 11.1 µM; with CHO [5] it was 7.5 µM. The values for the selectivity ratio in the data set with CYP1A1 [2] and in the data set on CYP1A1 [6] were 1.1 and 2.4, respectively.

For the molecule `O=C(c1cc2cc(F)cc(F)c2[nH]1)N1CC(CCl)c2c1ccc1[nH]ccc21` (stereo not drawn), the IC50 in the data set on RT-112 [1] was 12.3 µM; in the data set on CHO [3] it was greater than 1 µM; in the data set with HEK293 [4], 9.1 µM; in the data set with CHO [5], 21 µM. Besides, the selectivity ratio in the data set with CYP1A1 [2] was 1.1; in the data set on CYP1A1 [6], less than 21.

With `O=C(c1cc2cc(O)ccc2[nH]1)N1CC(CCl)c2c1ccc1[nH]ccc21` (stereo not drawn), the IC50 is 32.7 µM in the data set on RT-112 [1], 0.3 µM in the data set on CHO [3], 20.5 µM in the data set with HEK293 [4] and 3.3 µM in the data set with CHO [5]. Besides, the selectivity ratio turned out to be 0.8 with CYP1A1 [2] and 11 in the data set on CYP1A1 [6].

With `O=C(c1cc2cc(Cl)ccc2[nH]1)N1CC(CCl)c2c1ccc1[nH]ccc21` (stereo not drawn), the concentration for half-maximal inhibition (IC50) is 0.7 µM with RT-112 [1], less than 0.001 µM with CHO [3], 0.3 µM with HEK293 [4] and 23.2 µM in the data set with CHO [5]. Further, the selectivity ratio in the data set with CYP1A1 [2] is 41.7; with CYP1A1 [6], greater than 23200.

One may read the IC50 as the concentration that inhibits the measured activity by half.
